Key:
Format in all cases: in vivo
[1] = tested on: pigweed (Amaranthus retroflexus); experiment: Test B pre-/postemergence plant response
In short: (§1)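 Visual injury scores on a 0–100 scale (100 = complete control) relative to untreated plants, taken about 10 days post-treatment in greenhouse. Treatments were a directed preemergence soil spray and a postemergence spray at one- to two-leaf stage, using surfactant-containing solvent formulation.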

[2] = tested on: giant foxtail (Setaria faberii); experiment: Test B pre-/postemergence plant response
In short: as §1

[3] = tested on: wheat (Triticum aestivum); experiment: Test B pre-/postemergence plant response
In short: as §1

corn (Zea mays) = experiment: Test B pre-/postemergence plant response
In short: as §1

[4] = tested on: barnyardgrass (Echinochloa crus-galli); experiment: Test B pre-/postemergence plant response
In short: as §1

[5] = tested on: blackgrass (Alopecurus myosuroides); experiment: Test D pre-/postemergence plant response
In short: (§2)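 Each compound, in non-phytotoxic solvent with surfactant, was sprayed onto soil right after sowing or onto young plants 2 to 18 cm tall. After 13 to 15 days under greenhouse conditions, effects were judged visually against controls on a 0 (no effect) to 100 (complete control) scale.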

[6] = tested on: yellow nutsedge (Cyperus esculentus); experiment: Test D pre-/postemergence plant response
In short: as §2

soybean (Glycine max) = experiment: Test D pre-/postemergence plant response
In short: as §2

[7] = tested on: pigweed (Amaranthus retroflexus); experiment: Test D pre-/postemergence plant response
In short: as §2

[8] = tested on: giant foxtail (Setaria faberii); experiment: Test D pre-/postemergence plant response
In short: as §2

[9] = tested on: ragweed (common ragweed, Ambrosia elatior); experiment: Test D pre-/postemergence plant response
In short: as §2

[10] = tested on: large (Lg) crabgrass (Digitaria sanguinalis); experiment: Test D pre-/postemergence plant response
In short: as §2

[11] = tested on: morningglory (Ipomoea coccinea); experiment: Test D pre-/postemergence plant response
In short: as §2

[12] = tested on: waterhemp (common waterhemp, Amaranthus rudis); experiment: Test D pre-/postemergence plant response
In short: as §2

[13] = tested on: johnsongrass (Sorghum halepense); experiment: Test D pre-/postemergence plant response
In short: as §2

[14] = tested on: barnyardgrass (Echinochloa crus-galli); experiment: Test D pre-/postemergence plant response
In short: as §2

[15] = 125 g ai/ha, postemergence, 0 to 100 scale, 0 no effect, 100 complete control
[16] = Postemergence, 500 g ai/ha, 0 to 100 scale (0 no effect, 100 complete control)
[17] = Preemergence, 125 g ai/ha, 0 to 100 scale (0 no effect, 100 complete control)
[18] = Preemergence, 500 g ai/ha, 0 to 100 scale where 0 is no effect and 100 is complete control
[19] = Postemergence, 31 g ai/ha, scale 0 to 100 (0 no effect, 100 complete control)
[20] = Postemergence, 62 g ai/ha, scale 0 to 100, 0 no effect, 100 complete control
[21] = Postemergence, 125 g ai/ha, scale 0 to 100, 0 no effect, 100 complete control
[22] = Preemergence, 16 g ai/ha, scale 0 to 100 (0 no effect, 100 complete control)
[23] = Preemergence, 31 g ai/ha, scale 0 to 100 (0 no effect, 100 complete control)
[24] = Preemergence, 62 g ai/ha, scale 0 to 100 (0 no effect, 100 complete control)

Clc1cnc(Oc2ccccc2-c2cc(C3CC3)on2)nc1 [Compound 183]
Plant response rating, Pigweed [1, 15]: 100
Plant response rating, Pigweed [1, 16]: 100
Pigweed plant response rating [1, 17]: 90
Plant response rating, Pigweed [1, 18]: 100
Plant response rating, Foxtail, Giant [2, 15]: 60
Plant response rating, Foxtail, Giant [2, 16]: 80
Foxtail, Giant plant response rating [2, 17]: 80
Plant response rating, Foxtail, Giant [2, 18]: 90
Plant response rating, Wheat [3, 15]: 10
Plant response rating, Wheat [3, 16]: 60
Plant response rating, Corn (corn (Zea mays); [15]): 10
Plant response rating, Corn (corn (Zea mays); [16]): 30
Plant response rating, Barnyardgrass [4, 15]: 40
Plant response rating, Barnyardgrass [4, 16]: 70
Barnyardgrass plant response rating [4, 17]: 30
Plant response rating, Barnyardgrass [4, 18]: 80
Plant response rating (scale 0 to 100), Blackgrass ([5]; Postemergence, 16 g ai/ha): 0
Blackgrass plant response rating [5, 19]: 5
Plant response rating, Blackgrass [5, 20]: 5
Plant response rating, Blackgrass [5, 21]: 20
Plant response rating (scale 0 to 100), Blackgrass ([5]; Preemergence, 125 g ai/ha): 50
Plant response rating, Blackgrass [5, 22]: 0
Plant response rating, Blackgrass [5, 23]: 0
Plant response rating, Blackgrass [5, 24]: 0
Plant response rating (scale 0 to 100), Nutsedge, Yellow ([6]; Postemergence, 16 g ai/ha): 5
Nutsedge, Yellow plant response rating [6, 19]: 5
Nutsedge, Yellow plant response rating [6, 20]: 5
Plant response rating, Nutsedge, Yellow [6, 21]: 5
Plant response rating (scale 0 to 100), Nutsedge, Yellow ([6]; Preemergence, 125 g ai/ha): 5
Plant response rating, Nutsedge, Yellow [6, 22]: 0
Plant response rating, Nutsedge, Yellow [6, 23]: 0
Plant response rating, Nutsedge, Yellow [6, 24]: 0
Plant response rating (scale 0 to 100), Soybean (soybean (Glycine max); Postemergence, 16 g ai/ha): 65
Soybean plant response rating (soybean (Glycine max); [19]): 55
Soybean plant response rating (soybean (Glycine max); [20]): 75
Plant response rating, Soybean (soybean (Glycine max); [21]): 90
Plant response rating (scale 0 to 100), Soybean (soybean (Glycine max); Preemergence, 125 g ai/ha): 80
Plant response rating, Soybean (soybean (Glycine max); [22]): 0
Plant response rating, Soybean (soybean (Glycine max); [23]): 10
Plant response rating, Soybean (soybean (Glycine max); [24]): 35
Plant response rating (scale 0 to 100), Pigweed ([7]; Postemergence, 16 g ai/ha): 55
Pigweed plant response rating [7, 19]: 85
Pigweed plant response rating [7, 20]: 85
Plant response rating, Pigweed [7, 21]: 95
Plant response rating (scale 0 to 100), Pigweed ([7]; Preemergence, 125 g ai/ha): 100
Plant response rating, Pigweed [7, 22]: 50
Plant response rating, Pigweed [7, 23]: 60
Plant response rating, Pigweed [7, 24]: 100
Plant response rating (scale 0 to 100), Foxtail, Giant ([8]; Postemergence, 16 g ai/ha): 5
Foxtail, Giant plant response rating [8, 19]: 5
Plant response rating, Foxtail, Giant [8, 20]: 5
Plant response rating, Foxtail, Giant [8, 21]: 5
Plant response rating (scale 0 to 100), Foxtail, Giant ([8]; Preemergence, 125 g ai/ha): 100
Plant response rating, Foxtail, Giant [8, 22]: 5
Plant response rating, Foxtail, Giant [8, 23]: 35
Plant response rating, Foxtail, Giant [8, 24]: 80
Plant response rating (scale 0 to 100), Ragweed ([9]; Postemergence, 16 g ai/ha): 15
Ragweed plant response rating [9, 19]: 35
Ragweed plant response rating [9, 20]: 60
Plant response rating, Ragweed [9, 21]: 65
Plant response rating (scale 0 to 100), Ragweed ([9]; Preemergence, 125 g ai/ha): 10
Plant response rating, Ragweed [9, 22]: 0
Plant response rating, Ragweed [9, 23]: 0
Plant response rating, Ragweed [9, 24]: 0
Plant response rating (scale 0 to 100), Crabgrass, Large ([10]; Postemergence, 16 g ai/ha): 5
Crabgrass, Large plant response rating [10, 19]: 5
Plant response rating, Crabgrass, Large [10, 20]: 5
Plant response rating, Crabgrass, Large [10, 21]: 10
Plant response rating (scale 0 to 100), Crabgrass, Large ([10]; Preemergence, 125 g ai/ha): 100
Plant response rating, Crabgrass, Large [10, 22]: 5
Plant response rating, Crabgrass, Large [10, 23]: 70
Plant response rating, Crabgrass, Large [10, 24]: 98
Plant response rating (scale 0 to 100), Morningglory ([11]; Postemergence, 16 g ai/ha): 65
Morningglory plant response rating [11, 19]: 75
Morningglory plant response rating [11, 20]: 90
Plant response rating, Morningglory [11, 21]: 90
Plant response rating (scale 0 to 100), Morningglory ([11]; Preemergence, 125 g ai/ha): 40
Plant response rating, Morningglory [11, 22]: 0
Plant response rating, Morningglory [11, 23]: 0
Plant response rating, Morningglory [11, 24]: 5
Plant response rating (scale 0 to 100), Waterhemp ([12]; Postemergence, 16 g ai/ha): 80
Waterhemp plant response rating [12, 19]: 80
Waterhemp plant response rating [12, 20]: 75
Plant response rating, Waterhemp [12, 21]: 98
Plant response rating (scale 0 to 100), Waterhemp ([12]; Preemergence, 125 g ai/ha): 100
Plant response rating, Waterhemp [12, 22]: 10
Plant response rating, Waterhemp [12, 23]: 100
Plant response rating, Waterhemp [12, 24]: 95
Plant response rating (scale 0 to 100), Johnsongrass ([13]; Postemergence, 16 g ai/ha): 0
Johnsongrass plant response rating [13, 19]: 5
Plant response rating, Johnsongrass [13, 20]: 5
Plant response rating, Johnsongrass [13, 21]: 10
Plant response rating (scale 0 to 100), Johnsongrass ([13]; Preemergence, 125 g ai/ha): 45
Plant response rating, Johnsongrass [13, 22]: 0
Plant response rating, Johnsongrass [13, 23]: 5
Plant response rating, Johnsongrass [13, 24]: 20
Plant response rating (scale 0 to 100), Barnyardgrass ([14]; Postemergence, 16 g ai/ha): 5
Barnyardgrass plant response rating [14, 19]: 5
Plant response rating, Barnyardgrass [14, 20]: 5
Plant response rating, Barnyardgrass [14, 21]: 5
Plant response rating (scale 0 to 100), Barnyardgrass ([14]; Preemergence, 125 g ai/ha): 90
Plant response rating, Barnyardgrass [14, 22]: 5
Plant response rating, Barnyardgrass [14, 23]: 5
Plant response rating, Barnyardgrass [14, 24]: 30

Clc1cnc(Oc2ccccc2-c2ccon2)nc1 [Compound 185]
Plant response rating, Pigweed [1, 15]: 90
Plant response rating, Pigweed [1, 16]: 100
Pigweed plant response rating [1, 17]: 90
Plant response rating, Pigweed [1, 18]: 100
Plant response rating, Foxtail, Giant [2, 15]: 10
Plant response rating, Foxtail, Giant [2, 16]: 70
Foxtail, Giant plant response rating [2, 17]: 30
Plant response rating, Foxtail, Giant [2, 18]: 90
Plant response rating, Wheat [3, 15]: 0
Plant response rating, Wheat [3, 16]: 0
Plant response rating, Corn (corn (Zea mays); [15]): 0
Plant response rating, Corn (corn (Zea mays); [16]): 10
Plant response rating, Barnyardgrass [4, 15]: 10
Plant response rating, Barnyardgrass [4, 16]: 40
Barnyardgrass plant response rating [4, 17]: 20
Plant response rating, Barnyardgrass [4, 18]: 70
Plant response rating (scale 0 to 100), Blackgrass ([5]; Postemergence, 16 g ai/ha): 0
Blackgrass plant response rating [5, 19]: 0
Plant response rating, Blackgrass [5, 20]: 0
Plant response rating, Blackgrass [5, 21]: 0
Plant response rating (scale 0 to 100), Nutsedge, Yellow ([6]; Postemergence, 16 g ai/ha): 0
Nutsedge, Yellow plant response rating [6, 19]: 0
Nutsedge, Yellow plant response rating [6, 20]: 0
Plant response rating, Nutsedge, Yellow [6, 21]: 30
Plant response rating (scale 0 to 100), Soybean (soybean (Glycine max); Postemergence, 16 g ai/ha): 15
Soybean plant response rating (soybean (Glycine max); [19]): 30
Soybean plant response rating (soybean (Glycine max); [20]): 35
Plant response rating, Soybean (soybean (Glycine max); [21]): 45
Plant response rating (scale 0 to 100), Pigweed ([7]; Postemergence, 16 g ai/ha): 10
Pigweed plant response rating [7, 19]: 35
Pigweed plant response rating [7, 20]: 35
Plant response rating, Pigweed [7, 21]: 50
Plant response rating (scale 0 to 100), Foxtail, Giant ([8]; Postemergence, 16 g ai/ha): 35
Foxtail, Giant plant response rating [8, 19]: 5
Plant response rating, Foxtail, Giant [8, 20]: 5
Plant response rating, Foxtail, Giant [8, 21]: 5
Plant response rating (scale 0 to 100), Ragweed ([9]; Postemergence, 16 g ai/ha): 10
Ragweed plant response rating [9, 19]: 20
Ragweed plant response rating [9, 20]: 15
Plant response rating, Ragweed [9, 21]: 25
Plant response rating (scale 0 to 100), Crabgrass, Large ([10]; Postemergence, 16 g ai/ha): 0
Crabgrass, Large plant response rating [10, 19]: 0
Plant response rating, Crabgrass, Large [10, 20]: 10
Plant response rating, Crabgrass, Large [10, 21]: 10
Plant response rating (scale 0 to 100), Morningglory ([11]; Postemergence, 16 g ai/ha): 0
Morningglory plant response rating [11, 19]: 25
Morningglory plant response rating [11, 20]: 10
Plant response rating, Morningglory [11, 21]: 65
Plant response rating (scale 0 to 100), Waterhemp ([12]; Postemergence, 16 g ai/ha): 5
Waterhemp plant response rating [12, 19]: 25
Waterhemp plant response rating [12, 20]: 25
Plant response rating, Waterhemp [12, 21]: 30
Plant response rating (scale 0 to 100), Johnsongrass ([13]; Postemergence, 16 g ai/ha): 0
Johnsongrass plant response rating [13, 19]: 0
Plant response rating, Johnsongrass [13, 20]: 5
Plant response rating, Johnsongrass [13, 21]: 5
Plant response rating (scale 0 to 100), Barnyardgrass ([14]; Postemergence, 16 g ai/ha): 0
Barnyardgrass plant response rating [14, 19]: 0
Plant response rating, Barnyardgrass [14, 20]: 0
Plant response rating, Barnyardgrass [14, 21]: 5

Reference: patent publication US10131652B2, “Pyrimidinyloxy benzene derivatives as herbicides” (E. I. DU PONT DE NEMOURS AND COMPANY, priority 2014, dated 2018)
